From paper PMC11580984 (bioRxiv, 2024)
Numbered stars: 1 amine (or outer) side, 2 acyl side, 3 side chain; on linkers, the order of the positions; unused ones are H or OH. Bridge positions count the residues as written; N and C are the ends. Square brackets hold non-standard residues; d marks the D form. Peptide text beside a SMILES is read from it. X1 = O=S(=O)(F)Oc1cc(C[*:1])cc(C[*:2])c1; X2 = Oc1cc(C[*:1])cc(C[*:2])c1; Pra = C#CC[C@H](N)C(=O)O

How the values were obtained:
[1] = molecular target: BSA (Bos taurus, UniProt P02769); assay type: binding; details: highest concentration tested
Chain of BSA (P02769 25-607): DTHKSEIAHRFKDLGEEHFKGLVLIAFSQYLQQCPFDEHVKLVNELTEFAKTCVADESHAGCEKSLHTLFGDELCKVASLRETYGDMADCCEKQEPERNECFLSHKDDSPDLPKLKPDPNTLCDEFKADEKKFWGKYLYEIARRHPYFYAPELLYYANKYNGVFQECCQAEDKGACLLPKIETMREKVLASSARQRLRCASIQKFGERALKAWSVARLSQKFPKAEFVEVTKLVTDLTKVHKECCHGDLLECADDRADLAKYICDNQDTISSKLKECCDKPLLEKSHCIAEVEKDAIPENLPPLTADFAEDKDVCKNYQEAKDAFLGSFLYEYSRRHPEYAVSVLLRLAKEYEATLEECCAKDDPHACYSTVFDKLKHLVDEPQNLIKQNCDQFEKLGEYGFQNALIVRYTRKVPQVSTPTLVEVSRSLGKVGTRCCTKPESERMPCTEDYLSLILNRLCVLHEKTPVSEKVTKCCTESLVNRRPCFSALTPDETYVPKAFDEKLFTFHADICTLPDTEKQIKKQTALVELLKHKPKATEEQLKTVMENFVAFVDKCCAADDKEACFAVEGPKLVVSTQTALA

[2] = tested on: interaction between Omicron BA2 spike and ACE2; assay type: binding, SARS-CoV-2
[3] = tested on: SARS-CoV-2 Omicron BA2
[4] = tested on: SARS-CoV-2 Omicron BA1
[5] = tested on: SARS-CoV-2 Omicron BA5
[6] = tested on: SARS-CoV-2 omicron BA.2; assay type: cell-based

Row | Compound | labeling of BSA [1] | inhibition activity in MSD assay [2] | antiviral activity [3] | antiviral activity [4] | antiviral activity [5] | change of inhibitory potency after 10-fold dilution [6] | EC50 [5] [µM]
1 | C#CC[C@H](N)C(=O)N[C@@H](CCC(N)=O)C(=O)N[C@H]1CSCc2cc(cc(OS(=O)(=O)F)c2)CSC[C@@H](C(=O)NCC(N)=O)NC(=O)[C@H](CC(C)C)NC(=O)[C@H](C(C)C)NC(=O)[C@H](Cc2ccc(O)cc2)NC(=O)[C@H](CC(C)C)NC(=O)[C@H](CC(=O)O)NC(=O)[C@H](CCC(N)=O)NC(=O)[C@H](C(C)C)NC1=O [CP_SW3A] (H-[Pra]QCVQDLYVLCG-NH2; linker 3-11 via X1) | only faint labeling | strong activity | – | – | – | – | –
2 | C#CC[C@H](N)C(=O)N[C@@H](CCC(N)=O)C(=O)N[C@H]1CSCc2cc(O)cc(c2)CSC[C@@H](C(=O)NCC(N)=O)NC(=O)[C@H](CC(C)C)NC(=O)[C@H](C(C)C)NC(=O)[C@H](Cc2ccc(O)cc2)NC(=O)[C@H](CC(C)C)NC(=O)[C@H](CC(=O)O)NC(=O)[C@H](CCC(N)=O)NC(=O)[C@H](C(C)C)NC1=O [CP_SW3A_Bz] (H-[Pra]QCVQDLYVLCG-NH2; linker 3-11 via X2) | – | – | only weak background activity | only weak background activity | only weak background activity | – | –
3 | C#CC[C@H](N)C(=O)N[C@@H](CCC(N)=O)C(=O)N[C@H]1CSSC[C@@H](C(=O)NCC(N)=O)NC(=O)[C@H](CC(C)C)NC(=O)[C@H](C(C)C)NC(=O)[C@H](Cc2ccc(O)cc2)NC(=O)[C@H](CC(C)C)NC(=O)[C@H](CC(=O)O)NC(=O)[C@H](CCC(N)=O)NC(=O)[C@H](C(C)C)NC1=O [CP_SW3A_DS] (H-[Pra]QCVQDLYVLCG-NH2; disulfide 3-11) | – | – | – | – | – | dramatic loss of activity after dilution | –
4 | C#CC[C@H](NC(=O)[C@H](CCC(N)=O)NC(=O)[C@@H]1CSCc2cc(cc(OS(=O)(=O)F)c2)CSC[C@H](NC(=O)CN)C(=O)N[C@@H](CC(C)C)C(=O)N[C@@H](C(C)C)C(=O)N[C@@H](Cc2ccc(O)cc2)C(=O)N[C@@H](CC(C)C)C(=O)N[C@@H](CC(=O)O)C(=O)N[C@@H](CCC(N)=O)C(=O)N[C@@H](C(C)C)C(=O)N1)C(N)=O [CP_SW3A_S1] (H-GCLVYLDQVCQ[Pra]-NH2; linker 2-10 via X1) | – | loss of inhibition activities | only weak background activity | only weak background activity | only weak background activity | – | –
5 | C#CC[C@H](N)C(=O)N[C@@H](CCC(N)=O)C(=O)N[C@H]1CSCc2cc(cc(OS(=O)(=O)F)c2)CSC[C@@H](C(=O)NCC(N)=O)NC(=O)[C@H](C(C)C)NC(=O)[C@H](CCC(N)=O)NC(=O)[C@H](CC(=O)O)NC(=O)[C@H](CC(C)C)NC(=O)[C@H](Cc2ccc(O)cc2)NC(=O)[C@H](C(C)C)NC(=O)[C@H](CC(C)C)NC1=O [CP_SW3A_S2] (H-[Pra]QCLVYLDQVCG-NH2; linker 3-11 via X1) | – | loss of inhibition activities | only weak background activity | only weak background activity | only weak background activity | – | –
6 | Sotrovimab: monoclonal antibody targeting the spike protein of SARS-CoV-2, positive control [reference compound] | – | – | – | – | – | – | 7
